How the values were obtained:
human iNOS promoter = settings: phiNOS(7.2)Luc; 6 h preincubation, IL-1β 20 ng/ml 12 h
Method: (§1) Primary mouse microglia were treated with different concentrations of NaPB for 6 h followed by stimulation with LPS under serum-free condition. After 24 h of stimulation, concentrations of nitrite were measured in supernatants (A) and the level of iNOS protein was monitored in cells by Western blot (B). […] After 5 h of stimulation, the expression of iNOS mRNA was monitored by semi-quantitative RT-PCR (C). Cells preinctibated with different concentration of trichostatin A (TSA) and sodium butyrate (NaBu) for 6 h were stimulated with LPS for 24 h under serum-free condition followed by monitoring the level of nitrite in supernatants (p). […] Primary human astroglia isolated from fetal brain tissues were treated with different concentrations of NaPB for 6 h followed by stimulation with IL-1β under serum-free condition. After 48 h of stimulation, concentrations of nitrite (E) were measured in supernatants. Human astroglia plated at 70-80% confluence in 12-well plates were co-transfected with 0.25 μg of phiNOS(7.2)Luc and 12.5 ng of pRL-TK using the Lipofectamine-Plus (Invitrogen). Twenty-four h after transfection, cells received NaPB. After 6 h of incubation, cells were stimulated with IL-1β (20 ng/ml) for 12 h. Firefly (ff-Luc) and Renilla (r-Luc) luciferase activities were obtained by analyzing the total cell extract (F).

primary human astroglia = settings: 6 h preincubation, IL-1β 48 h
Method: as §1

[1] = test system: chronic MPTP mouse model of PD; settings: oral 100 mg/kg body wt/d from the third injection of MPTP/probenecid
Method: (§5) A) Six to eight week old male C57BL/6 mice received 10 injections of MPTP (s.c.; 25 mg/kg body weight) together with 10 injections of probenecid (i.p.; 250 mg/kg body weight) for 5 weeks. Control group of mice received only saline. One group of mice were treated with NaPB (100 mg/kg body weight/d) via gavage from the 3rd injection of MPTP/probenecid and continued for 1 week thereafter. Mice were tested for different motor tasks [horizontal activity (C), number of movements (D), rearing (E), and stereotypy (F)] one week after the last injection of MPTP followed by measuring the level of DA in striatum (B). Data are means+SEM of eight mice per group. ^ap<0.001 vs saline; ^bp<0.001 vs MPTP; p<0.05 vs saline; ^dp<0.05 vs MPTP.
(§6) We examined if NaPB was capable of protecting neurons in a chronic model (FIG. 10A). […] We initiated oral NaPB treatment (100 mg/kg body wt/d) from the third injection of MPTP/probenecid (FIG. 10A). […]
Behavioral analyses: Two types of behavioral experiments were conducted. This included open field experiment for locomotor activity and rotorod experiment for feet movement. .Locomotor activity was measured after 7 d of the last dose of MPTP injection in Digiscan Monitor (Omnitech Electronics, Inc., Columbus, Ohio). […] [sequence] software was used to analyze and store horizontal and vertical activity data, which were monitored automatically by infra-red beams.

iNOS [2] = test system: iNOS
Method: as §1, with “(F). […]” for “(F).”

p21^rac = settings: 200 mg/kg body wt/day gavage from 1 d prior to MPTP; 6 h after last MPTP
Method: A) Mice were treated with NaPB (200 mg/kg body wt/d.) via gavage from 1 d prior to MPTP injection. Six h after the last injection of MPTP, activation of p21^ras and p21^rac was monitored in ventral midbrain tissues. Experiment was repeated three times each time using two animal in each group. B) Bands from three different mice were quantified and activation of p21^ras and p21^rac is shown as percent of control, C) Mice were treated with NaPB (200 mg/kg body wt/d) from 3 h after the last injection of MPTP.
(§7) Animals and MPTP intoxications: Six- to eight-week old C57BL/6 mice were purchased from Harlan, Indianapolis, Ind. For acute MPTP intoxication, mice received four intraperitoneal (i.p.) injections of MPTP-HCl (18 mg/kg of free base; Sigma Chemical Co., St. Louis, Mo.) in saline at 2 hr intervals. Control animals received only saline.

MPTP-intoxicated mice [3] = assay: Locomotor and open-field activities in acute MPTP-intoxicated mice; format: in vivo, mouse; settings: NaPB 200 mg/kg body wt/day from 3 h after last MPTP; 7 d
Method: Mice receiving FTI, GGTI or the combination of the two via daily intraperitoneal injection from 3h after the last injection of MPTP were tested for motor functions (B, horizontal activity; C, total distance; D, number of movement; E, stereotypy) 7 d after the last injection of MPTP followed by measuring DA in striatum (A).
The ultimate therapeutic goal of neuroprotection is to decrease functional impairment. Therefore, to examine whether NaPB protects not only against structural and neurotransmitter damage but also against functional deficits caused by MPTP, we monitored locomotor and open-field activities. MPTP injection caused marked decrease in rotorod performance (FIG. 15A), movement time (FIG. 15B), total distance (FIG. 15C), stereotypy (FIG. 15E), rearing (FIG. 15F), and horizontal activity (FIG. 15G). On the other hand, MPTP increased the rest time (FIG. 15D).
Therefore, we investigated if inhibition of either p21^ras or p21^rac alone was sufficient for the protection of the nigrostriatum. MPTP-intoxicated mice received FTI and GGTI, either separately at 10 mg/kg body wt/d or together at 5 mg/kg body wt/d, via i.p. injection from 3 h after the last injection of MPTP. […]
Behavioral analyses: Two types of behavioral experiments were conducted. […] Locomotor activity measures were assessed after baseline value comparison.

BV-2 microglial cells = assay: Superoxide production in microglial cells; format: cell-based, mouse; settings: 500 μM
Source text: Results represent three independent experiments.
Superoxide measurements: Superoxide production was detected by LumiMax™ Superoxide Anion Detection Kit (Stratagene) as described by us (30).

MPTP-intoxicated mice [4] = assay: HPLC analysis of striatal dopamine in acute MPTP-intoxicated mice; format: in vivo, mouse; settings: NaPB 200 mg/kg body wt/day from 3 h after last MPTP; 7 days; MPTP alone about 76% decrease
Method: Mice receiving NaPB (200 mg/kg body wt/day) from 3 h after the last injection of MPTP were sacrificed 7d after the last injection of MPTP followed by TH immunostaining of SNpc (A) and striatum (B), counting of TH-positive neurons in SNpc (C), quantification of TH-positive fibers in striatum (D), assay of neurotransmitters in striatum (E), and quantification of GSH in nigra (F). Data are means+SEM of eight mice per group. ^ap<0.0001 vs saline group; ^bp<0.0001 vs the MPTP group.
as §7
(§8) HPLC analysis of striatal dopamine and its metabolite levels: Striatal level of dopamine, DOPAC (3,4-dihydroxyphenylacetic acid) and HVA (homovanillic acid) was quantified. […] After pH adjustment and filtration, lOul of supernatant was injected onto an Eicompak SC-3ODS column (Complete Stand-Alone HPLC-ECD System EiCOMITTEC-500 from JM Science Inc., Grand Island, N.Y.) and analyzed following manufacturer's protocol.

[5] = test system: chronic MPTP mouse model of PD; settings: oral 100 mg/kg body wt/d from the third injection of MPTP/probenecid; remark: listed apart in the source
Method: as §5, §6, §8

iNOS [6] = test system: iNOS; remark: listed apart in the source
Method: (§2) A) Mice were treated with NaPB (200 mg/kg body wt/d) from 3 h after the last injection of MPTP. […] The mRNA expression of TNF-α, iNOS and IL-1β was analyzed by semi-quantitative RT-PCR (C) and quantitative real-time PCR (D).
(§3) Semi-quantitative RT-PCR analysis for proinflammatory molecules (iNOS, IL-1β and TNF-α) and glial cell markers: Total RNA was isolated from ventral midbrain using Ultraspec-II RNA reagent (Biotecx .Laboratories, Inc., Houston, Tex.) following manufacturer's protocol. To remove any contaminating genomic DNA, total RNA was digested with DNase. RT-PCR was carried out using a RT-PCR kit (Clontech., Mountain View, Calif.) and following primers.
(§4) Real-time PCR analysis: It was performed in the ABI-Prism7700 sequence detection system (Applied Biosystems, Foster City, Calif.) using TaqMan Universal Master mix and optimized concentrations of FAM-labeled probes and primers.

TNF-α = settings: 200 mg/kg body wt/d from 3 h after last MPTP; RT-PCR, real-time PCR
Method: as §2, §3, §4

IL-1β = settings: 200 mg/kg body wt/d from 3 h after last MPTP; RT-PCR, real-time PCR
Method: as §2, §3, §4

microglia = settings: any of the concentrations tested (data not shown)
Method: Activated microglia and astroglia are known to produce excessive amount of NO having the potential of damaging neurons in neurodegenerative disorders. We investigated the effect of NaPB on the expression of iNOS in microglia. LPS is a prototype inducer of various proinflammatory molecules in different cell types including mouse microglia. Therefore, primary mouse microglia preincubated with different doses of NaPB for 6 h were stimulated with LPS under serum-free condition. […] We used trichostatin A (TSA) and sodium butyrate (NaBu) for this purpose.

## sodium phenylbutyrate [NaPB]
Human iNOS promoter
  IL-1β-induced activation of iNOS promoter: markedly inhibited
Primary human astroglia
  IL-1β-induced production of NO: markedly inhibited
[1]
  locomotor activities (horizontal activity, number of movements, rearing, stereotypy): improved
iNOS [2]; RT-PCR, 5 h LPS
  LPS-induced mRNA expression of iNOS: dose-dependently inhibited
iNOS [2]; Western blot, 24 h LPS
  LPS-induced protein expression of iNOS: dose-dependently inhibited
p21^rac
  MPTP-induced activation of p21^rac in the nigra: much decreased activation
MPTP-intoxicated mice [3]
  MPTP-induced hypolocomotion (rotorod, movement time, total distance, rest time, stereotypy, rearing, horizontal activity): significantly improved
BV-2 microglial cells; 6 h, 1 μM MPP+
  MPP+-induced production of superoxide: attenuated
BV-2 microglial cells; 6 h preincubation, 10 min stimulation
  LPS-, TNF-α-, IL-1β-, gp120-, and Aβ-induced production of superoxide: knocked down
MPTP-intoxicated mice [4]
  decrease in striatal dopamine: 20-25%
[5]
  striatal DA: significantly protected
iNOS [6]; 200 mg/kg body wt/d from 3 h after last MPTP, RT-PCR, real-time PCR
  MPTP-induced mRNA expression of iNOS in the nigra: strongly inhibited
iNOS [6]; 200 mg/kg body wt/d gavage from 1 d prior to MPTP, all time points tested (up to 24 h)
  expression of iNOS mRNA in the nigra, time course: markedly inhibited
iNOS [6]; 200 mg/kg body wt/d oral from 3 h after last MPTP, 24 h
  MPTP-induced expression of iNOS protein: suppressed
TNF-α
  MPTP-induced mRNA expression of TNF-α in the nigra: strongly inhibited
IL-1β
  MPTP-induced mRNA expression of IL-1β in the nigra: strongly inhibited
microglia
  toxicity to microglia (MTT): not toxic

— patent US20130303564A1, “METHOD FOR TREATING A NEURODEGENERATIVE DISORDER” (RUSH UNIVERSITY MEDICAL CENTER, priority 2012, published 2013)
